Reference: patent US20100056544A1, “Salts with CRTH2 Antagonist Activity” (Oxagen Limited, priority 2007, published 2010)
Like-named read-outs stand apart in the source and are kept apart here.

How the values were obtained:
[1] = cited from earlier work; for pKa of base: Table 5; for pKa 1: pKa value of base, Tables 2-4
[2] = Solubility of the salts in water determined by HPLC, with pH of the filtered mixtures; settings: for Solubility: HPLC grade water, stirred 18 hours at 15 to 25° C., filtered, HPLC
[3] = basic solubility screen of Compound 1 free acid in solvents; format: physicochemical; settings: for Solution Yes/No 20 vol R.T.: 50 mg, stirred at 15 to 25° C.
[4] = pH of the filtered mixtures in water

In the case of OCCN1CCOCC1 [4-(2-Hydroxyethyl)morpholine], the pKa of base [1] is given as 7.4 and the “pKa 1” value [1] is given as 7.4.
In the case of C[N+](C)(C)CC(=O)O [Betaine], the pKa of base [1] is listed as 12.2.
For Cc1c(Cc2ccc3ccccc3n2)c2cc(F)ccc2n1CC(=O)O [Compound 1, (5-fluoro-2-methyl-3-quinolin-2-ylmethyl-indol-1-yl)acetic acid], the Solubility [2] was 0.05 mg/mL, the pH [2, 4] was 7 and the “solubility in NMP (50 mg retained in 20 vol)” value ([3]; NMP at 15 to 25° C. after obtaining a solution at 100° C.) was ≥ 50 mg per ml. The “Solution Yes/No 20 vol reflux” value ([3]; solvent Acetone) was “No”, the “Solution Yes/No 40 vol reflux” value ([3]; solvent Acetone) was “No” and the “Solution on cooling to R.T.” value ([3]; solvent Acetone) was “No”. The “Solution Yes/No 20 vol R.T.” value ([3]; solvent Acetone) was “No”, the “Solution Yes/No 20 vol reflux” value ([3]; solvent Acetonitrile) was “No” and the “Solution Yes/No 40 vol reflux” value ([3]; solvent Acetonitrile) was “No”. The “Solution on cooling to R.T.” value ([3]; solvent Acetonitrile) was “No”, the “Solution Yes/No 20 vol R.T.” value ([3]; solvent Acetonitrile) was “No” and the “Solution Yes/No 20 vol reflux” value ([3]; solvent Chloroform) was “No”. For the same molecule, the “Solution Yes/No 40 vol reflux” value ([3]; solvent Chloroform) was “No”, the “Solution on cooling to R.T.” value ([3]; solvent Chloroform) was “No” and the “Solution Yes/No 20 vol R.T.” value ([3]; solvent Chloroform) was “No”. The “Solution on cooling to R.T.” value ([3]; solvent DMF) was “No”, the “Solution Yes/No 20 vol R.T.” value ([3]; solvent DMF) was “No” and the “Solution Yes/No 20 vol reflux” value ([3]; solvent DMF, heated to 100° C.) was “No”. For the same molecule, the “Solution Yes/No 40 vol reflux” value ([3]; solvent DMF, heated to 100° C.) was “Yes”, the “Solution on cooling to R.T.” value ([3]; solvent DMSO) was “No” and the “Solution Yes/No 20 vol R.T.” value ([3]; solvent DMSO) was “No”. For the same molecule, the “Solution Yes/No 20 vol reflux” value ([3]; solvent DMSO, heated to 100° C.) was “Yes”, the “Solution Yes/No 20 vol reflux” value ([3]; solvent Ethanol) was “No” and the “Solution Yes/No 40 vol reflux” value ([3]; solvent Ethanol) was “No”. The “Solution on cooling to R.T.” value ([3]; solvent Ethanol) was “No”, the “Solution Yes/No 20 vol R.T.” value ([3]; solvent Ethanol) was “No” and the “Solution Yes/No 20 vol reflux” value ([3]; solvent Ethyl acetate) was “No”. The “Solution Yes/No 40 vol reflux” value ([3]; solvent Ethyl acetate) was “No”, the “Solution on cooling to R.T.” value ([3]; solvent Ethyl acetate) was “No” and the “Solution Yes/No 20 vol R.T.” value ([3]; solvent Ethyl acetate) was “No”. The “Solution Yes/No 20 vol reflux” value ([3]; solvent Heptanes) was “No”, the “Solution Yes/No 40 vol reflux” value ([3]; solvent Heptanes) was “No” and the “Solution on cooling to R.T.” value ([3]; solvent Heptanes) was “No”. For the same molecule, the “Solution Yes/No 20 vol R.T.” value ([3]; solvent Heptanes) was “No”, the “Solution Yes/No 20 vol reflux” value ([3]; solvent IPA) was “No” and the “Solution Yes/No 40 vol reflux” value ([3]; solvent IPA) was “No”. For the same molecule, the “Solution on cooling to R.T.” value ([3]; solvent IPA) was “No”, the “Solution Yes/No 20 vol R.T.” value ([3]; solvent IPA) was “No” and the “Solution Yes/No 20 vol reflux” value ([3]; solvent Methanol) was “No”. The “Solution Yes/No 40 vol reflux” value ([3]; solvent Methanol) was “No”, the “Solution on cooling to R.T.” value ([3]; solvent Methanol) was “No” and the “Solution Yes/No 20 vol R.T.” value ([3]; solvent Methanol) was “No”. The “Solution on cooling to R.T.” value ([3]; solvent NMP) was “Yes”, the “Solution Yes/No 20 vol R.T.” value ([3]; solvent NMP) was “No” and the “Solution Yes/No 20 vol reflux” value ([3]; solvent NMP, heated to 100° C.) was “Yes”. The “Solution Yes/No 20 vol reflux” value ([3]; solvent TBME) was “No”, the “Solution Yes/No 40 vol reflux” value ([3]; solvent TBME) was “No” and the “Solution on cooling to R.T.” value ([3]; solvent TBME) was “No”. For the same molecule, the “Solution Yes/No 20 vol R.T.” value ([3]; solvent TBME) was “No”, the “Solution Yes/No 20 vol reflux” value ([3]; solvent Toluene) was “No” and the “Solution Yes/No 40 vol reflux” value ([3]; solvent Toluene) was “No”. For the same molecule, the “Solution on cooling to R.T.” value ([3]; solvent Toluene) was “No”, the “Solution Yes/No 20 vol R.T.” value ([3]; solvent Toluene) was “No” and the “Solution Yes/No 20 vol reflux” value ([3]; solvent Water) was “No”. For the same molecule, the “Solution Yes/No 40 vol reflux” value ([3]; solvent Water) was “No”, the “Solution on cooling to R.T.” value ([3]; solvent Water) was “No” and the “Solution Yes/No 20 vol R.T.” value ([3]; solvent Water) was “No”. The Solubility ([3]; variety of solvents (Table 1), organic solvent or mixture, thermodynamic from solid) was < 25 mg/mL.
In the case of CNC[C@H](O)[C@@H](O)[C@H](O)[C@H](O)CO [N-methyl Glucamine], the pKa of base [1] is listed as 8.
For OCCN1CCCC1 [1-(2-Hydroxyethyl)pyrrolidine], the pKa of base [1] is given as 9.4 and the “pKa 1” value [1] is given as 9.4.
Work on Cc1c(Cc2ccc3ccccc3n2)c2cc(F)ccc2n1CC(=O)O [Potassium, (5-fluoro-2-methyl-3-quinolin-2-ylmethyl-indol-1-yl)acetic acid] yielded a Solubility [2] of 32.36 mg/mL, a pH [2, 4] of 12 and a pH ([2]; pH of the filtered mixtures in water, listed as potassium) of 12. The pKa of base [1] was 14.0.
For c1c[nH]cn1 [Imidazole], the pKa of base [1] is listed as 7 and the “pKa 1” value [1] is listed as 7.
For Cc1c(Cc2ccc3ccccc3n2)c2cc(F)ccc2n1CC(=O)O [Ammonium, (5-fluoro-2-methyl-3-quinolin-2-ylmethyl-indol-1-yl)acetic acid], the pH [2] was 8 and the Solubility [2] was 4.98 mg/mL.
In the case of Cc1c(Cc2ccc3ccccc3n2)c2cc(F)ccc2n1CC(=O)O [Sodium, (5-fluoro-2-methyl-3-quinolin-2-ylmethyl-indol-1-yl)acetic acid], the Solubility [2] is reported as 84.28 mg/mL, the pH [2, 4] is reported as 9 and the “solubility in water compared (in words)” value ([2]; water) is reported as “most soluble”. For the same molecule, the pKa of base [1] was 14.0.
In the case of C[N+](C)(C)CCO [Choline], the pKa of base [1] is listed as >11 and the “pKa 1” value [1] is listed as >11.
For Cc1c(Cc2ccc3ccccc3n2)c2cc(F)ccc2n1CC(=O)O [Tris, (5-fluoro-2-methyl-3-quinolin-2-ylmethyl-indol-1-yl)acetic acid], the Solubility [2] is listed as 3.26 mg/mL, the pH [2, 4] is listed as 9 and the pKa of base [1] is listed as 8.
For Deanol, the pKa of base [1] is given as 8.8 and the “pKa 1” value [1] is given as 8.8.
